Experimental findings from patent US12351559B2 (Biohaven Therapeutics Ltd., priority 2014, dated 2025) are described below.

For this assay, the target named is T1, Kv7.2/7.3 (Homo sapiens, UniProt O43525+O43526).
T1 construct: host or cells: HEK cells, tetracycline-inducible expression
The assay can be described thus: Kv7.2/7.3 activation assay, QPatch planar patch-clamp, single concentration screen. The format is cell-based. On the set-up: key: <1.2-fold increase over baseline (−); +/−: as a range from <1.2-fold increase over baseline (−) up to >6-fold increase over baseline (+++); as a range from <1.2-fold increase over baseline (−) up to >6-fold increase over baseline (+++); as a range from <1.2-fold increase over baseline (−) up to >6-fold increase over baseline (+++); >6-fold increase over baseline (+++). The settings on record: Kv7.2/Kv7.3 co-expressing HEK cells, compound 3 μM, steady-state current at end of 2 s pulse to −30 mV. The procedure:
The ability of compounds to potentiate K-currents in Kv7.2/7.3 containing HEK cells was assessed using planar patch-clamp on the QPatch automated screening platform.
Cell Line: The hKv7.2/7.3 cell line was obtained from Chantest (Cleveland, OH 44128) cat. #CT6147. These HEK cells will express the Kv7.2/7.3 ion channels when induced.
Cell Culture: Cells were maintained in a media containing DMEM/F12; 50/50 (GIBCO cat. #11330), 10% Fetal Bovine Serum (FBS) (GIBCO cat. #26140), 100 units/mL Penicillin-Streptomycin (GIBCO cat. #15140), 0.005 mg/mL Blasticidin (INVIVOGEN cat. #ant-bl-1), 0.5 mg/mL Geneticin (GIBCO cat. #10131), 0.1 mg/ml Zeocin (GIBCO cat. #R25001). Cells used in the electrophysiology assay were maintained in a media without Blasticidin, Geneticin and Zeocin for 2 days and channel expression was induced by adding tetracycline (BIOLINE cat. #BIO-87030) at a final concentration of 1 mg/mL. Cells were grown in T-175 flask to ˜75% confluency. Currents were recorded 24 hours after channel induction.
Compound Plates: Test compounds were prepared by performing serial dilutions on a Biomek NX^P (BECKMAN COULTER). Final dilutions were made in external recording solution with a final DMSO concentration of 0.1% DMSO. For single concentration screens each plate had 10 μM retigabine as a positive control and 0.1% DMSO as a negative control.
Electrophysiology: On the day of the experiment cells were washed with Hank's Balanced Salt Solution (HBBS) (GIBCO cat. #14175) and harvested with Tryple (GIBCO cat. #12604). Cells were then centrifuged at 2000 rpm for 5 minutes and resuspended in CHO-S-SFM (GIBCO cat. #12052) at ˜3×10^6 cells/mL. Cells were stirred for 30 minutes before experiments were started. External recording solution contained (in mM): NaCl (145), KCl (4), CaCl2 (2), MgCl2 (1), HEPES (10) and Glucose (10); pH was adjusted to 7.4 with NaOH and the osmolarity was adjusted to 300-305 mOsM with sucrose if necessary. Internal solution contained (in mM): KCl (125), KF (10), EGTA (5), Na2ATP (5), MgCl2 (3.2), HEPES (5); pH was adjusted to 7.2 with KOH and the osmolarity was adjusted to 298-302 mOsM with sucrose.
Potassium channel activity was measured on the QPatch HTX (Sophion Bioscience) using QPlates with 48-wells/plate. Each cell was taken as an independent experiment and only one compound was tested per well. Potassium channel activity was elicited by holding at −80 mV and stepping to −30 mV for 2 s followed by a 100 ms pulse to −120 mV.
Single concentration screen: Baseline conditions were obtained by recording 5 sweeps in the external solution only, this was repeated for three applications of the external solution. […] The steady-state current at the end of the 2 s pulse to −30 mV was measured to determine the fold increase from baseline.
A general note: Patch clamp records ionic current or voltage across a cell membrane.

Molecules are shown by their SMILES.

For the molecule `CC(O)c1ccc2nc(NC(=O)CC(C)(C)C)n(C3CCC3)c2c1` (stereo not shown) [Example 55, N-(1-cyclobutyl-6-(1-hydroxyethyl)-1H-benzo[d]imidazol-2-yl)-3,3-dimethylbutanamide], the “Kv7.2/7.3 Activity: increase in current over baseline” value (“Kv7.2/7.3 Activity: increase” for short) is “+”.

Take `CC(O)c1ccc2nc(NC(=O)[C@@H](C)C(C)C)n(C3CCC3)c2c1` (stereo partly drawn) [Example 56, (2S)-N-(1-cyclobutyl-6-(1-hydroxyethyl)-1H-benzo[d]imidazol-2-yl)-2,3-dimethylbutanamide]: the “Kv7.2/7.3 Activity: increase” value was “++”.

On to `CCC(O)c1ccc2nc(NC(=O)CC(C)(C)C)n(C3CCC3)c2c1` (stereo not shown) [Example 57], for which the “Kv7.2/7.3 Activity: increase” value is “+”.

Consider `CC1(C)C[C@@H]1C(=O)Nc1nc2ccc(Cl)cc2n1C1CCC1` [Example 58, (S)-N-(6-chloro-1-cyclobutyl-1H-benzo[d]imidazol-2-yl)-2,2-dimethylcyclopropane-1-carboxamide], for which the “Kv7.2/7.3 Activity: increase” value was “+”.

With `CC(C)[C@H](C)C(=O)Nc1nc2ccc(Cl)cc2n1C1CCC1` [Example 59, (S)-N-(6-chloro-1-cyclobutyl-1H-benzo[d]imidazol-2-yl)-2,3-dimethylbutanamide], the “Kv7.2/7.3 Activity: increase” value is “+”.

On to `CC(C)(C)CC(=O)Nc1nc2ccc(Cl)cc2n1C1CCC1` [Example 60, N-(6-chloro-1-cyclobutyl-1H-benzo[d]imidazol-2-yl)-3,3-dimethylbutanamide], for which the “Kv7.2/7.3 Activity: increase” value was “+”.

On to `O=C(CC1(O)CCC1)Nc1nc2ccc(Cl)cc2n1C1CCC1` [Example 62, N-(6-chloro-1-cyclobutyl-1H-benzo[d]imidazol-2-yl)-2-(1-hydroxycyclobutyl)acetamide], for which the “Kv7.2/7.3 Activity: increase” value is listed as “+”.

Turning to `CC(C)(C)CC(=O)Nc1nc2ccc(Br)cc2n1C1CCC1` [Example 63, N-(6-bromo-1-cyclobutyl-1H-benzo[d]imidazol-2-yl)-3,3-dimethylbutanamide], the “Kv7.2/7.3 Activity: increase” value was “++”.

On to `CC(C)c1ccc2nc(NC(=O)CC(C)(C)C)n(C3CCC3)c2c1` [Example 64, N-(1-cyclobutyl-6-isopropyl-1H-benzo[d]imidazol-2-yl)-3,3-dimethylbutanamide], for which the “Kv7.2/7.3 Activity: increase” value is on record as “++”.

With `CC(C)c1ccc2nc(NC(=O)[C@@H](C)C(C)C)n(C3CCC3)c2c1` [Example 65, (S)—N-(1-cyclobutyl-6-isopropyl-1H-benzo[d]imidazol-2-yl)-2,3-dimethylbutanamide], the “Kv7.2/7.3 Activity: increase” value is given as “+”.

On to `CC(C)(C)CC(=O)Nc1nc2ccc(C(F)F)cc2n1C1CCC1` [Example 66, N-(1-cyclobutyl-6-(difluoromethyl)-1H-benzo[d]imidazol-2-yl)-3,3-dimethylbutanamide], for which the “Kv7.2/7.3 Activity: increase” value is “++”.

Take `COC(=O)c1cccc2nc(NC(=O)CC(C)(C)C)n(C3CCC3)c12` [Example 67, methyl 1-cyclobutyl-2-(3,3-dimethylbutanamido)-1H-benzo[d]imidazole-7-carboxylate]: the “Kv7.2/7.3 Activity: increase” value is recorded as “+/−”.

In the case of `CC(C)(C)CC(=O)Nc1nc2cccc(CO)c2n1C1CCC1` [Example 68, N-(1-cyclobutyl-7-(hydroxymethyl)-1H-benzo[d]imidazol-2-yl)-3,3-dimethylbutanamide], the “Kv7.2/7.3 Activity: increase” value is “+”.

In the case of `Cc1cc(-n2c(NC(=O)CC(C)(C)C)nc3ccc(C#N)cc32)on1` [Example 69, N-(6-cyano-1-(3-methylisoxazol-5-yl)-1H-benzo[d]imidazol-2-yl)-3,3-dimethylbutanamide], the “Kv7.2/7.3 Activity: increase” value is “+”.

Turning to `C[C@@](O)(CC(=O)Nc1nc2ccc(C#N)cc2n1-c1ccc(F)cc1)c1ccccc1` [Example 70, (R)-N-(6-cyano-1-(4-fluorophenyl)-1H-benzo[d]imidazol-2-yl)-3-hydroxy-3-phenylbutanamide], the “Kv7.2/7.3 Activity: increase” value is “+/−”.

For the molecule `C[C@H](C(=O)Nc1nc2ccc(C#N)cc2n1-c1ccc(F)cc1)C(C)(C)C` [Example 71, (S)-N-(6-cyano-1-(4-fluorophenyl)-1H-benzo[d]imidazol-2-yl)-2,3,3-trimethylbutanamide], the “Kv7.2/7.3 Activity: increase” value is recorded as “+”.

On to `CC(C)(C(=O)Nc1nc2ccc(C#N)cc2n1C1CCC1)C(O)c1ccccc1` (stereo not shown) [Example 72, N-(6-cyano-1-cyclobutyl-1H-benzo[d]imidazol-2-yl)-3-hydroxy-2,2-dimethyl-3-phenylpropanamide], for which the “Kv7.2/7.3 Activity: increase” value was “+/−”.

For `CC(C)[C@H](C)C(=O)Nc1nc2ccc(C#N)cc2n1-c1ccc(F)cn1` [Example 73, (S)-N-(6-cyano-1-(5-fluoropyridin-2-yl)-1H-benzo[d]imidazol-2-yl)-2,3-dimethylbutanamide], the “Kv7.2/7.3 Activity: increase” value is “+/−”.

`CC(C)(C)CC(=O)Nc1nc2ccc(C#N)cc2n1-c1ccc(F)cn1` [Example 74, N-(6-cyano-1-(5-fluoropyridin-2-yl)-1H-benzo[d]imidazol-2-yl)-3,3-dimethylbutanamide]: the “Kv7.2/7.3 Activity: increase” value is on record as “+”.

With `C[C@H](C(=O)Nc1nc2ccc(C#N)cc2n1-c1ccc(F)cn1)C(C)(C)C` [Example 75, (S)-N-(6-cyano-1-(5-fluoropyridin-2-yl)-1H-benzo[d]imidazol-2-yl)-2,3,3-trimethylbutanamide], the “Kv7.2/7.3 Activity: increase” value is listed as “++”.

On to `C[C@@H](C(=O)Nc1nc2ccc(C#N)cc2n1C1CCC1)C(C)(C)C` [Example 76, (R)-N-(6-cyano-1-cyclobutyl-1H-benzo[d]imidazol-2-yl)-2,3,3-trimethylbutanamide], for which the “Kv7.2/7.3 Activity: increase” value is “+”.

Regarding `CC(C(=O)Nc1nc2ccc(C#N)cc2n1C1CCC1)C(C)(C)C` (stereo not shown) [Example 77, N-(6-cyano-1-cyclobutyl-1H-benzo[d]imidazol-2-yl)-2,3,3-trimethylbutanamide], the “Kv7.2/7.3 Activity: increase” value was “+”.

Take `CC(O)(CC(=O)Nc1nc2ccc(C#N)cc2n1C1CCC1)C1CCC1` (stereo not shown) [Example 78, N-(6-cyano-1-cyclobutyl-1H-benzo[d]imidazol-2-yl)-3-cyclobutyl-3-hydroxybutanamide]: the “Kv7.2/7.3 Activity: increase” value is listed as “+”.

With `C[C@](O)(CC(=O)Nc1nc2ccc(C#N)cc2n1-c1ccc(F)cn1)c1ccccc1` [Example 79, (S)-N-(6-cyano-1-(5-fluoropyridin-2-yl)-1H-benzo[d]imidazol-2-yl)-3-hydroxy-3-phenylbutanamide], the “Kv7.2/7.3 Activity: increase” value is given as “+”.

`CC(O)(CC(=O)Nc1nc2ccc(C#N)cc2n1C1CCC1)C1CCCC1` (stereo not shown) [Example 80, N-(6-cyano-1-cyclobutyl-1H-benzo[d]imidazol-2-yl)-3-cyclopentyl-3-hydroxybutanamide]: the “Kv7.2/7.3 Activity: increase” value is reported as “+”.

As for `N#Cc1ccc2nc(NC(=O)CC3(O)CCCC3)n(C3CCC3)c2c1` [Example 81, N-(6-cyano-1-cyclobutyl-1H-benzo[d]imidazol-2-yl)-2-(1-hydroxycyclopentyl)acetamide], the “Kv7.2/7.3 Activity: increase” value is recorded as “+”.

Consider `CC(C)(C)CC(=O)Nc1nc2cccc(C(C)(C)O)c2n1C1CCC1` [Example 82, N-(1-cyclobutyl-7-(2-hydroxypropan-2-yl)-1H-benzo[d]imidazol-2-yl)-3,3-dimethylbutanamide], for which the “Kv7.2/7.3 Activity: increase” value is given as “+/−”.

On to `CC1(C)CCC[C@@H](CC(=O)Nc2nc3ccc(C(C)(C)O)cc3n2C2CCC2)O1` [Example 83, (S)-N-(1-cyclobutyl-6-(2-hydroxypropan-2-yl)-1H-benzo[d]imidazol-2-yl)-2-(6,6-dimethyltetrahydro-2H-pyran-2-yl)acetamide], for which the “Kv7.2/7.3 Activity: increase” value is given as “++”.
